Measurements reported in patent US20220347085A1, “REPELLENT COMPOSITION AND USES” (Université Bourgogne, priority 2019, published 2022).

Key:
Format in all cases: in vivo
Drosophila melanogaster [1] = assay: Anesthesia test, Drosophila melanogaster; conditions: 2% in paraffin oil
Procedure: The devices used were similar to the devices for studying the courtship (example 1 above), except for the volume of the space into which the files were introduced, which was 45.24 or 22.62 cm^3. 9 discs of filter paper (Whatman, filter paper 42), each soaked in 10 μl of a composition comprising butyric acid and/or propionic acid and/or a derivative of propionic acid diluted in paraffin oil were deposited in the device. The different compositions used comprised, respectively, 2% propionic acid or 2% butyric acid or 5% ethyl propanoate or 10% ethyl propanoate or 30% ethyl propanoate. For each composition, the number of flies was, respectively, 30 and 24 males, 30 and 11 females for Drosophila melanogaster, and 24, 16 and 4 males, 28, 26, 6, 5 and 4 females for Drosophila suzukii. In order to avoid any contact of the flies with the soaked disks of paper, a gauze (netting) was arranged above said papers. The drosophilae could move freely on said gauze. The quantity of compound, butyric acid or propionic acid, or of ethyl propanoate (odor) volatilized in the behavior chamber was equivalent to that of the device used for the courtship. Likewise, the flies were never in direct contact with the composition (no taste perception), only with the volatile particles (olfactory perception). The flies tested were introduced simultaneously, by group, into the enclosure. Their behavior was filed for 10 minutes, and a time required for leading to anesthesia was calculated over this period, depending on the concentration of butyric acid or propionic acid or ethyl propanoate used. The flies were considered anesthetized when they stopped moving and fell on their side.

Drosophila suzukii = assay: Test in a box (repellent effect), Drosophila suzukii; conditions: 2% in solvent, 1250 cm^3 box
Procedure: 2. Tests “in a Box” (Repellent Effect)
The sensitivity of the drosophilae was evaluated over a period of between 0 minutes and 24 hours, according to the conditions (see results) in closed and transparent boxes of 1250 cm^3.
An odor source, i.e. a composition comprising butyric acid or propionic acid in paraffin oil, was deposited on a filter paper at the base of a 50 mm petri dish. The petri dish is introduced into a test box and covered with a gauze Securimed M8202 sterile gauze pad) in order to prevent the flies from getting stuck on the oily odorous compound.
The concentrations used were 2%, 6% or 20% propionic acid.
A second Petri dish containing 5 to 6 grams of synthetic food used for breeding drosophilae in laboratories was placed in the test box, i.e. 6.5% maize flour, 6.5% (v/v) yeast extract, 1% (v/v) agar-agar, and 3% (v/v) of a 0.1% (v/v) antifungal solution (Tegosept (Apex)) in ethanol at 95%. This latter provides the water and/or the food which the flies needed during the test, and eliminated the possibility of an event due to dehydration of the individuals tested.
Drosophila melanogaster or suzukii were then introduced by groups into the test box, and moved there freely over time. Their behavior in the presence of a composition as mentioned above was observed and photographed (Apple iPhone 6S).

Drosophila melanogaster [2] = assay: Courtship of male Drosophila melanogaster towards females, olfactory exposure
Procedure: 1.1. Drosophila melanogaster
Drosophilae (Drosophila melanogaster) aged from 3 to 9 days are used for the courtship tests as described Grosjean et al. Nat. Neurosci. 2008 [1] and Grosjean et al. Nature 2011 [2].
Naive males were isolated in tubes, individually, upon emerging from their puparium. The females were selected to be virgin and were stored in tubes of 10 individuals. These tubes were placed in incubators, for which a temperature of 25° C. was kept constant. A 12 hour/12 hour day/night cycle was applied. The courtship tests were carried out in the morning, between 1 and 3 hours after the start of the day cycle.
These tests were conducted in devices made up of 6 cylindrical, transparent, and closed alveolae (see FIG. 15) of a volume of […]. A disk of filter paper (Whatman, filter paper 42) of 6 mm in diameter is deposited on the base thereof. Said paper is soaked in 10 μl of a composition comprising propionic acid and/or butyric acid diluted in paraffin oil (solvent). The different compositions used comprised, respectively, 0.5% or 1% propionic acid, 0.5% or 1% butyric acid. For each concentration, the number of pairs of flies tested was, respectively, 23, 23, 19 and 19. At the time of the test, 1 pair per alveolus was introduced into the behavior device (i.e. 6 pairs). Said pair was made up of one male and one female, each originating from the tubes mentioned above. The drosophilae were physically isolated from the odor source (said paper) by a netting which prevents any direct contact, the female had been decapitated but remained alive. In addition, the device was illuminated by red light (red far from the wavelength of between 625 and 630 nm) so as to eliminate any behavior associated with the visual perception which, in D. melanogaster, is between 300 and 550 nm)). Thus, the behavior observed depends only on the olfactory perception by the male of the compound introduced into the device at the time of the assembly thereof.
The behavior was filmed for 10 minutes, using a Sony HDR-XR550 camera. Each film was recorded and kept for subsequent analysis.
A proportion of courtship, expressed as a percentage, was then calculated, and represents the time during which the male courts the female during the 10 minutes of recording the test. The courtship of the Drosophila melanogaster is decomposed into recognizable stereotypical events, and described precisely in scientific literature (Greenspan & Ferveur, Annu. Rev. Genet, 2000 [3]). A statistical test (Mann-Whitney test (nonparametric test, GraphPad, Prism8)) was carried out in order to evaluate the influence, on the behavior, of the composition in which the paper is soaked; this involving a release of volatile compounds and an odor perceived by the drosophilae. […]

[3] = 1% in paraffin oil, compared with solvent alone, red light, decapitated female

Compound	time elapsed leading to anesthesia (Drosophila melanogaster [1]; female flies)	time elapsed leading to anesthesia (Drosophila melanogaster [1]; male flies)	repellent behavior (location of flies relative to odor source) (Drosophila suzukii)	anesthesia at a distance in the box (Drosophila suzukii; males and females)	proportion of courtship of males towards females (Drosophila melanogaster [2]; [3])	proportion of courtship of males towards females (Drosophila melanogaster [2]; 1% in solvent, compared with 0.5% in solvent)	time until death in the box (Drosophila suzukii; males and females)	proportion of courtship of males towards females (Drosophila melanogaster [2]; 0.5% in paraffin oil, compared with solvent alone)
CCC(=O)O [propionic acid]	approximately 5 minutes	approximately 3 minutes	remained preferably away from said odor	anesthetized in the hour which followed	significantly changed	significantly reduced		
CCCC(=O)O [butyric acid]	approximately 17 minutes	approximately 5 minutes	remained away from the filter soaked in butyric acid	anesthetized	significantly reduced		20 h	significantly reduced
